Measured values from US20210045385A1, “PYRIDAZINONE-SUBSTITUTED KETOXIMES AS HERBICIDES” (FMC Corporation, priority 2018, published 2021).

How the values were obtained:
Type in all cases: in vivo
[1] = test system: Italian ryegrass (Lolium multiflorum); assay: Test A preemergence, visual plant response rating; details: for Ryegrass, Italian plant response rating: 125 g ai/ha, preemergence, 0 to 100 scale, 0 no effect, 100 complete control; for Ryegrass, Italian plant response rating (0 to 100 scale): 500 g ai/ha Preemergence, approx. 10 days
Summary of the method: (§1)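 Greenhouse pot test in loam–sand soil mix: compound in a surfactant-containing non-phytotoxic solvent applied preemergence (directed soil spray) or postemergence (one- to two-leaf plants, 2–10 cm). Injury scored visually after ~10 days, 0–100.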

[2] = test system: barnyardgrass (Echinochloa crus-galli); assay: Test A preemergence, visual plant response rating; details: for Barnyardgrass plant response rating: 125 g ai/ha, preemergence, 0 to 100 scale, 0 no effect, 100 complete control; for Barnyardgrass plant response rating (0 to 100 scale): 500 g ai/ha Preemergence, approx. 10 days
Summary of the method: as §1

[3] = test system: foxtail, giant (giant foxtail, Setaria faberii); assay: Test A preemergence, visual plant response rating; details: for Foxtail, Giant plant response rating: 125 g ai/ha, preemergence, 0 to 100 scale, 0 no effect, 100 complete control; for Foxtail, Giant plant response rating (0 to 100 scale): 500 g ai/ha Preemergence, approx. 10 days
Summary of the method: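 Ratings use a 0–100 visual scale (100 = complete control) against untreated controls, scored about 10 days after greenhouse treatment. Test chemicals were formulated in surfactant-containing non-phytotoxic solvent and applied either as soil spray after planting (preemergence) or onto one- to two-leaf, 2–10 cm plants (postemergence).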

kochia (Kochia scoparia) [4] = assay: Test A preemergence, visual plant response rating; details: for Kochia plant response rating: 125 g ai/ha, preemergence, 0 to 100 scale, 0 no effect, 100 complete control; for Kochia plant response rating (0 to 100 scale): 500 g ai/ha Preemergence, approx. 10 days
Summary of the method: as §1

[5] = test system: pigweed (Amaranthus retroflexus); assay: Test A preemergence, visual plant response rating; details: for Pigweed plant response rating: 125 g ai/ha, preemergence, 0 to 100 scale, 0 no effect, 100 complete control; for Pigweed plant response rating (0 to 100 scale): 500 g ai/ha Preemergence, approx. 10 days
Summary of the method: as §1

[6] = test system: ragweed (common ragweed, Ambrosia elatior); assay: Test A preemergence, visual plant response rating; details: for Ragweed plant response rating: 125 g ai/ha, preemergence, 0 to 100 scale, 0 no effect, 100 complete control; for Ragweed plant response rating (0 to 100 scale): 500 g ai/ha Preemergence, approx. 10 days
Summary of the method: as §1

[7] = test system: Italian ryegrass (Lolium multiflorum); assay: Test A postemergence, visual plant response rating; details: for Ryegrass, Italian plant response rating (0 to 100 scale): 500 g ai/ha, postemergence, 0 is no effect, 100 is complete control; for Ryegrass, Italian plant response rating: Postemergence, 125 g ai/ha, 0 to 100 scale (0 no effect, 100 complete control)
Summary of the method: as §1

[8] = test system: barnyardgrass (Echinochloa crus-galli); assay: Test A postemergence, visual plant response rating; details: for Barnyardgrass plant response rating (0 to 100 scale): 500 g ai/ha, postemergence, 0 is no effect, 100 is complete control; for Barnyardgrass plant response rating: Postemergence, 125 g ai/ha, 0 to 100 scale (0 no effect, 100 complete control)
Summary of the method: as §1

[9] = test system: blackgrass (Alopecurus myosuroides); assay: Test A postemergence, visual plant response rating; details: for Blackgrass plant response rating (0 to 100 scale): 500 g ai/ha, postemergence, 0 is no effect, 100 is complete control; for Blackgrass plant response rating: Postemergence, 125 g ai/ha, 0 to 100 scale (0 no effect, 100 complete control)
Summary of the method: as §1

corn (Zea mays) = assay: Test A postemergence, visual plant response rating; details: for Corn plant response rating (0 to 100 scale): 500 g ai/ha, postemergence, 0 is no effect, 100 is complete control; for Corn plant response rating: Postemergence, 125 g ai/ha, 0 to 100 scale (0 no effect, 100 complete control)
Summary of the method: as §1

[10] = test system: foxtail, giant (giant foxtail, Setaria faberii); assay: Test A postemergence, visual plant response rating; details: for Foxtail, Giant plant response rating (0 to 100 scale): 500 g ai/ha, postemergence, 0 is no effect, 100 is complete control; for Foxtail, Giant plant response rating: Postemergence, 125 g ai/ha, 0 to 100 scale (0 no effect, 100 complete control)
Summary of the method: as §1

[11] = test system: galium (catchweed bedstraw, Galium aparine); assay: Test A postemergence, visual plant response rating; details: for Galium plant response rating (0 to 100 scale): 500 g ai/ha, postemergence, 0 is no effect, 100 is complete control; for Galium plant response rating: Postemergence, 125 g ai/ha, 0 to 100 scale (0 no effect, 100 complete control)
Summary of the method: as §1

kochia (Kochia scoparia) [12] = assay: Test A postemergence, visual plant response rating; details: for Kochia plant response rating (0 to 100 scale): 500 g ai/ha, postemergence, 0 is no effect, 100 is complete control; for Kochia plant response rating: Postemergence, 125 g ai/ha, 0 to 100 scale (0 no effect, 100 complete control)
Summary of the method: as §1

[13] = test system: pigweed (Amaranthus retroflexus); assay: Test A postemergence, visual plant response rating; details: for Pigweed plant response rating (0 to 100 scale): 500 g ai/ha, postemergence, 0 is no effect, 100 is complete control; for Pigweed plant response rating: Postemergence, 125 g ai/ha, 0 to 100 scale (0 no effect, 100 complete control)
Summary of the method: as §1

[14] = test system: ragweed (common ragweed, Ambrosia elatior); assay: Test A postemergence, visual plant response rating; details: for Ragweed plant response rating (0 to 100 scale): 500 g ai/ha, postemergence, 0 is no effect, 100 is complete control; for Ragweed plant response rating: Postemergence, 125 g ai/ha, 0 to 100 scale (0 no effect, 100 complete control)
Summary of the method: as §1

[15] = test system: wheat (Triticum aestivum); assay: Test A postemergence, visual plant response rating; details: for Wheat plant response rating (0 to 100 scale): 500 g ai/ha, postemergence, 0 is no effect, 100 is complete control; for Wheat plant response rating: Postemergence, 125 g ai/ha, 0 to 100 scale (0 no effect, 100 complete control)
Summary of the method: as §1

[16] = test system: barnyardgrass (Echinochloa crus-galli); assay: Test B flooded paddy test, visual plant response rating; details: 250 g ai/ha, Flood, applied to paddy water, 2-leaf stage, evaluated after 13 to 15 days
Summary of the method: (§2)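 Compounds added straight into paddy water of pots flooded to 3 cm, with 2-leaf-stage plants of the four species; water level held throughout.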

[17] = test system: ducksalad (Heteranhera limosa); assay: as above; details: 250 g ai/ha, Flood, applied to paddy water, 2-leaf stage, evaluated after 13 to 15 days
Summary of the method: as §2

rice (Oryza sativa) = assay: as above; details: 250 g ai/ha, Flood, applied to paddy water, 2-leaf stage, evaluated after 13 to 15 days
Summary of the method: as §2

[18] = test system: sedge, umbrella (small-flower umbrella sedge, Cyperus difformis); assay: as above; details: 250 g ai/ha, Flood, applied to paddy water, 2-leaf stage, evaluated after 13 to 15 days
Summary of the method: as §2

## Cc1nn(C)c(=O)c(C(=NOCC=CCl)c2ccc(F)c3ccccc23)c1O [Compound 107]
[1]
  Ryegrass, Italian plant response rating: 70
  Ryegrass, Italian plant response rating (0 to 100 scale): 90
[2]
  Barnyardgrass plant response rating: 70
  Barnyardgrass plant response rating (0 to 100 scale): 90
[3]
  Foxtail, Giant plant response rating: 80
  Foxtail, Giant plant response rating (0 to 100 scale): 100
Kochia (Kochia scoparia) [4]
  Kochia plant response rating: 0
  Kochia plant response rating (0 to 100 scale): 30
[5]
  Pigweed plant response rating: 60
  Pigweed plant response rating (0 to 100 scale): 80
[6]
  Ragweed plant response rating: 20
  Ragweed plant response rating (0 to 100 scale): 80
[7]
  Ryegrass, Italian plant response rating (0 to 100 scale): 90
  Ryegrass, Italian plant response rating: 70
[8]
  Barnyardgrass plant response rating (0 to 100 scale): 90
  Barnyardgrass plant response rating: 80
[9]
  Blackgrass plant response rating (0 to 100 scale): 80
  Blackgrass plant response rating: 80
Corn (Zea mays)
  Corn plant response rating (0 to 100 scale): 20
  Corn plant response rating: 0
[10]
  Foxtail, Giant plant response rating (0 to 100 scale): 80
  Foxtail, Giant plant response rating: 70
[11]
  Galium plant response rating (0 to 100 scale): 90
  Galium plant response rating: 70
Kochia (Kochia scoparia) [12]
  Kochia plant response rating (0 to 100 scale): 60
  Kochia plant response rating: 30
[13]
  Pigweed plant response rating (0 to 100 scale): 100
  Pigweed plant response rating: 80
[14]
  Ragweed plant response rating (0 to 100 scale): 90
  Ragweed plant response rating: 80
[15]
  Wheat plant response rating (0 to 100 scale): 40
  Wheat plant response rating: 0
[16]
  Plant response rating, Barnyardgrass (0 to 100 scale, 0 is no effect, 100 is complete control): 0
[17]
  Plant response rating, Ducksalad (0 to 100 scale, 0 is no effect, 100 is complete control): 0
Rice (Oryza sativa)
  Plant response rating, Rice (0 to 100 scale, 0 is no effect, 100 is complete control): 0
[18]
  Plant response rating, Sedge, Umbrella (0 to 100 scale, 0 is no effect, 100 is complete control): 0

## C#CCO/N=C(\c1c(O)c(C)nn(C)c1=O)c1ccc(F)c2ccccc12 [Compound 108, 4-[(Z)-(4-fluoro-1-naphthalenyl)(2-propyn-1-yloxy)imino]methyl-5-hydroxy-2,6-dimethyl-3(2H)-pyridazinone]
[1]
  Ryegrass, Italian plant response rating: 100
  Ryegrass, Italian plant response rating (0 to 100 scale): 100
[2]
  Barnyardgrass plant response rating: 90
  Barnyardgrass plant response rating (0 to 100 scale): 100
[3]
  Foxtail, Giant plant response rating: 100
  Foxtail, Giant plant response rating (0 to 100 scale): 100
Kochia (Kochia scoparia) [4]
  Kochia plant response rating: 50
  Kochia plant response rating (0 to 100 scale): 100
[5]
  Pigweed plant response rating: 100
  Pigweed plant response rating (0 to 100 scale): 100
[6]
  Ragweed plant response rating: 90
  Ragweed plant response rating (0 to 100 scale): 100
[7]
  Ryegrass, Italian plant response rating (0 to 100 scale): 100
  Ryegrass, Italian plant response rating: 100
[8]
  Barnyardgrass plant response rating (0 to 100 scale): 90
  Barnyardgrass plant response rating: 90
[9]
  Blackgrass plant response rating (0 to 100 scale): 100
  Blackgrass plant response rating: 100
Corn (Zea mays)
  Corn plant response rating (0 to 100 scale): 80
  Corn plant response rating: 30
[10]
  Foxtail, Giant plant response rating (0 to 100 scale): 90
  Foxtail, Giant plant response rating: 80
[11]
  Galium plant response rating (0 to 100 scale): 100
  Galium plant response rating: 100
Kochia (Kochia scoparia) [12]
  Kochia plant response rating (0 to 100 scale): 80
  Kochia plant response rating: 60
[13]
  Pigweed plant response rating (0 to 100 scale): 100
  Pigweed plant response rating: 90
[14]
  Ragweed plant response rating (0 to 100 scale): 100
  Ragweed plant response rating: 80
[15]
  Wheat plant response rating (0 to 100 scale): 80
  Wheat plant response rating: 70
[16]
  Plant response rating, Barnyardgrass (0 to 100 scale, 0 is no effect, 100 is complete control): 0
[17]
  Plant response rating, Ducksalad (0 to 100 scale, 0 is no effect, 100 is complete control): 0
Rice (Oryza sativa)
  Plant response rating, Rice (0 to 100 scale, 0 is no effect, 100 is complete control): 0
[18]
  Plant response rating, Sedge, Umbrella (0 to 100 scale, 0 is no effect, 100 is complete control): 0
